{"source": "paper doi:10.1101/208439v1", "about": "(biorxiv, 2017)", "key": {"SET1b Complex": {"target": "SET1b Complex (Homo sapiens, UniProt Q9UPS6)", "sequence (Q15291 whole entry)": "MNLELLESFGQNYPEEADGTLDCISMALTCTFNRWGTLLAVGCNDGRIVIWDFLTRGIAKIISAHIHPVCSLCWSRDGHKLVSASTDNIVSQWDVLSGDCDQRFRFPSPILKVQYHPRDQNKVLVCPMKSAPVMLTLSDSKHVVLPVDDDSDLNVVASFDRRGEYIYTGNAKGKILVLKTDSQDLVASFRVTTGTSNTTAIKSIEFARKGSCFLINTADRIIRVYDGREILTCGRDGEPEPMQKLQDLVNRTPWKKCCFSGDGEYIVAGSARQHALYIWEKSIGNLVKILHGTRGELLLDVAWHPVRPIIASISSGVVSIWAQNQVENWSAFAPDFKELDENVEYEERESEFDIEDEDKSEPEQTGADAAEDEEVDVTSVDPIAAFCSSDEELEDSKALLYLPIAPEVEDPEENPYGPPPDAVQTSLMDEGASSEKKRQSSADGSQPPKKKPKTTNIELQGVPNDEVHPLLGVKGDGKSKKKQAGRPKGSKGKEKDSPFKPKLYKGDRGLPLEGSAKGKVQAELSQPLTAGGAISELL", "sequence (Q9UPS6 1672-1966)": "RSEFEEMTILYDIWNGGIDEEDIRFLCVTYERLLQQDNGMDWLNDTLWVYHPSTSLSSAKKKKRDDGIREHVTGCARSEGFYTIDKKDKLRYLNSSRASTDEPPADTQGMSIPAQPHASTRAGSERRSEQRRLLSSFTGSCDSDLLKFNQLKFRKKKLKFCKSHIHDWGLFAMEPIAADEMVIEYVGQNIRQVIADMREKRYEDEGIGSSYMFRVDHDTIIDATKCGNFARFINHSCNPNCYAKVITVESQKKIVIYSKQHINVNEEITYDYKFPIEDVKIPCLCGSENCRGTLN", "sequence (Q9C005 whole entry, further chain)": "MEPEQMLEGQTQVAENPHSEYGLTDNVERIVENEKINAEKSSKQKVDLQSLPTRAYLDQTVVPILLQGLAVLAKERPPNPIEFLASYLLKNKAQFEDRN", "sequence (Q9UBL3 96-628, further chain)": "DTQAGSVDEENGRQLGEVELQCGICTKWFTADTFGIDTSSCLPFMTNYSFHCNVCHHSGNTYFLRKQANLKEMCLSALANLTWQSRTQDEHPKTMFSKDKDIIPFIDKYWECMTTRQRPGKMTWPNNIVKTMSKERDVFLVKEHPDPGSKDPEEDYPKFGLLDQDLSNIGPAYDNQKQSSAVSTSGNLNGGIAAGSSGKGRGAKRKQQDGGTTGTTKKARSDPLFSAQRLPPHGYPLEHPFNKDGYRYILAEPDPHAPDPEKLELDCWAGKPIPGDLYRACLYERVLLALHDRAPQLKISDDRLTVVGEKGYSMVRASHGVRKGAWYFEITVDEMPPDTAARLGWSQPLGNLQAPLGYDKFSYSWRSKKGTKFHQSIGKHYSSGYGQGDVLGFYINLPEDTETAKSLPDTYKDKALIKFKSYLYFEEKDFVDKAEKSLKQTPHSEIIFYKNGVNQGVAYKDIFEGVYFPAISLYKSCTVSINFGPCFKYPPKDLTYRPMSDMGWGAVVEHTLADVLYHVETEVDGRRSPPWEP", "assay": "HotSpot [3H]SAM filter-binding methyltransferase assay", "type": "biochemical", "design": "gene SETD1B; complex assembled as MLL1; SET1B N-terminal GST tag, E. coli; with WD repeat-containing protein 5; Set1/Ash2 histone methyltransferase complex subunit ASH2; Protein dpy-30 homolog"}, "SET8": {"target": "T1, SET8 (Homo sapiens, UniProt Q9NQR1)", "T1 construct": "gene KMT5A", "T1 sequence (Q9NQR1 1-393)": "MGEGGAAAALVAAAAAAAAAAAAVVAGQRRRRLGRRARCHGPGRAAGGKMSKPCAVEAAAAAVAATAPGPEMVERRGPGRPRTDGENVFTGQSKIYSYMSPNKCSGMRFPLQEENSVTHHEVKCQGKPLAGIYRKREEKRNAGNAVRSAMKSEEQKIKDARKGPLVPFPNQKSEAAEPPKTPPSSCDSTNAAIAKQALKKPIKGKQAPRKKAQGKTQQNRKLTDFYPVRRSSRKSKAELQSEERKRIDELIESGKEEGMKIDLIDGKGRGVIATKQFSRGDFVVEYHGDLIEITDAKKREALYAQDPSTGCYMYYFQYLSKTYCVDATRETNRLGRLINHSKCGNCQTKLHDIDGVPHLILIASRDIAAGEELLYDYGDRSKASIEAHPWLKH", "assay": "biochemical"}, "SETD2": {"target": "T2, SETD2 (Homo sapiens, UniProt Q9BYW2)", "T2 sequence (Q9BYW2 1434-1711)": "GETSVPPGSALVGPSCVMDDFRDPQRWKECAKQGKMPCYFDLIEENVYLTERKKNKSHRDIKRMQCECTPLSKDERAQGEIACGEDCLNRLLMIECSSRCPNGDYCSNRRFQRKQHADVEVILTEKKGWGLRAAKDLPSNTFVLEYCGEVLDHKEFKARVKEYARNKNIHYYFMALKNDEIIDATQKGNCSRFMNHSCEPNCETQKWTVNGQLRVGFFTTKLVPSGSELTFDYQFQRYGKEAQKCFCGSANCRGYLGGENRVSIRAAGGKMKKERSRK", "assay": "HotSpot [3H]SAM filter-binding methyltransferase assay", "type": "biochemical", "design": "residues 1434-1711, N-terminal GST fusion, E. coli"}, "EZH2 Complex": {"target": "T3, EZH2 Complex (Homo sapiens, UniProt Q15910, Y641F)", "T3 construct": "five-member complex, Flag-EED, other subunits His-tagged, insect cells; with Zinc finger protein AEBP2; Polycomb protein EED; Polycomb protein SUZ12", "T3 sequence (Q15910 2-746 Y641F)": "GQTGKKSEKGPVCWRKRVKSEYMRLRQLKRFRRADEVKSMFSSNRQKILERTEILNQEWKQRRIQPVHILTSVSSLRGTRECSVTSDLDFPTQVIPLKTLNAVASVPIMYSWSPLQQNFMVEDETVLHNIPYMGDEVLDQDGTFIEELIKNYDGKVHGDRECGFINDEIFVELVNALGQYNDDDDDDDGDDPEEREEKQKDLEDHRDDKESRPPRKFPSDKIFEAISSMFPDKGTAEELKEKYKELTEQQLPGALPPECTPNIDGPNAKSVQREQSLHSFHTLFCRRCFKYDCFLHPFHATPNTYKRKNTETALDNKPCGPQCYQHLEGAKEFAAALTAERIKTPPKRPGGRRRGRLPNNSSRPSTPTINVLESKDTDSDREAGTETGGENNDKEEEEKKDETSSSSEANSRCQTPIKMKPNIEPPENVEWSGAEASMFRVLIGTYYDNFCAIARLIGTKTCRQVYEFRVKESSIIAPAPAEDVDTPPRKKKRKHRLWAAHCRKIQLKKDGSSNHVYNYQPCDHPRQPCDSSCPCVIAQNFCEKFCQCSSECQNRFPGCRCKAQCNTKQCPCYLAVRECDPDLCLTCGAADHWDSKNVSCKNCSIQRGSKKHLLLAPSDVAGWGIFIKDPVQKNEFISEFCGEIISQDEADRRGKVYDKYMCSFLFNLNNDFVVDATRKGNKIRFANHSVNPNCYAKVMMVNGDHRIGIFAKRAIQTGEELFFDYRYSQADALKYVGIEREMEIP", "T3 sequence (O75530 2-441 partner)": "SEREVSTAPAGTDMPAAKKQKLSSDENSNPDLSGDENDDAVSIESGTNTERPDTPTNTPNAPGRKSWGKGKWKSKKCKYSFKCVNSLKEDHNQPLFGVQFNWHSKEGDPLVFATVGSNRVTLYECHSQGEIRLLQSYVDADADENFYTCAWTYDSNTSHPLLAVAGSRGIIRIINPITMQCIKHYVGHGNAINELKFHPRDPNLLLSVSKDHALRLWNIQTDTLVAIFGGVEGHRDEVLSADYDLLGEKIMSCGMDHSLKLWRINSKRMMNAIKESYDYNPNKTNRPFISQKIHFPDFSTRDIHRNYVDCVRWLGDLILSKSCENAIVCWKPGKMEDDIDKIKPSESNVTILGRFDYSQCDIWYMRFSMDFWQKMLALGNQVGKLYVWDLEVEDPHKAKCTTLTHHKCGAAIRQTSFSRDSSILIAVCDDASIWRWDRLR", "T3 sequence (Q15022 2-739 partner)": "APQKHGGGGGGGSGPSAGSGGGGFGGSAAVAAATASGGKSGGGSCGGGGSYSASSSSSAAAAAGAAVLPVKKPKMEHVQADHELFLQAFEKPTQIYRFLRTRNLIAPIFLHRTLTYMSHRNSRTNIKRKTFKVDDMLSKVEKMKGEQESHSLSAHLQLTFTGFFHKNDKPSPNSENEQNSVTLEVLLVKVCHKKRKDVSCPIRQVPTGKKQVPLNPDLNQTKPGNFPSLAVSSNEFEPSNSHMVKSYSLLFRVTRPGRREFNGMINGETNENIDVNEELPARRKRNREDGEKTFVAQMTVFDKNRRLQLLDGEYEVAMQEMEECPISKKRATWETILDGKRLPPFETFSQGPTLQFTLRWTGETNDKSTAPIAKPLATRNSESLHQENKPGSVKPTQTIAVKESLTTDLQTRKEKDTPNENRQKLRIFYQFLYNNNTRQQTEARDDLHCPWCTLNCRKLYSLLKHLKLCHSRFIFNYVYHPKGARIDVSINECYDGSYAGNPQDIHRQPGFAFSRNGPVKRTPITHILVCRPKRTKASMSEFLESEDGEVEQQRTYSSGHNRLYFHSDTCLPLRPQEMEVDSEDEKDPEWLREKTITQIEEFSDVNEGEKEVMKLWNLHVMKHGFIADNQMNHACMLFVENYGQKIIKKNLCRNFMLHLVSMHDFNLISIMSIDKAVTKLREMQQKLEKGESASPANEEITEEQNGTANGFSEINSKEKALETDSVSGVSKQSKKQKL", "T3 sequence (Q09028 2-425 partner)": "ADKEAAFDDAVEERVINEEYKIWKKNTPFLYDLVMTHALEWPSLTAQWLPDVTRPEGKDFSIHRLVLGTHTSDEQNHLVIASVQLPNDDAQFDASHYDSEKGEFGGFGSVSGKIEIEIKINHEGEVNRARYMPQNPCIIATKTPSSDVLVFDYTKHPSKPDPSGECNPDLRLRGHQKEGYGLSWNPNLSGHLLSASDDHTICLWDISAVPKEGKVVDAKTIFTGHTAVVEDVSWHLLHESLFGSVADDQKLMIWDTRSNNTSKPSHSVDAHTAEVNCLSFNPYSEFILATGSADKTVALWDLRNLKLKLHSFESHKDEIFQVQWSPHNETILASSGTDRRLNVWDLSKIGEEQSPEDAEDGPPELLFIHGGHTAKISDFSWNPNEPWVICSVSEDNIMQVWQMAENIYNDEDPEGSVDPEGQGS", "T3 sequence (Q6ZN18 2-517 partner)": "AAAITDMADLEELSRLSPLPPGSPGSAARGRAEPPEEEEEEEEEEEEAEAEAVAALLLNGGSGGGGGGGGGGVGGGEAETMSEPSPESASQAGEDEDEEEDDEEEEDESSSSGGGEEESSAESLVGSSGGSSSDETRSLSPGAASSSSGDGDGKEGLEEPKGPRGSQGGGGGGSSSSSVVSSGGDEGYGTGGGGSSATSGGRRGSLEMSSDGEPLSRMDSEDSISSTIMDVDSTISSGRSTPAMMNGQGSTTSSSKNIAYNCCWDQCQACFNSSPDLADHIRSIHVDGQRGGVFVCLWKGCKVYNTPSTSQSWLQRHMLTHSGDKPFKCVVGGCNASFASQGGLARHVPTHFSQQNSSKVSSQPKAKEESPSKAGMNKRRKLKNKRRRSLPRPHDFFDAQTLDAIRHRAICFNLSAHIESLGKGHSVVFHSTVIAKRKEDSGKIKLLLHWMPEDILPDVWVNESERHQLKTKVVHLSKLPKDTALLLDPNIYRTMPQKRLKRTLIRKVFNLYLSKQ", "assay": "HotSpot [3H]SAM filter-binding methyltransferase assay", "type": "biochemical"}, "NSD2": {"target": "T4, NSD2 (Homo sapiens, UniProt O96028, T1150A)", "T4 construct": "full length (residues 2-1365), N-terminal His tag, insect cell/baculovirus", "T4 sequence (O96028 2-1365 T1150A)": "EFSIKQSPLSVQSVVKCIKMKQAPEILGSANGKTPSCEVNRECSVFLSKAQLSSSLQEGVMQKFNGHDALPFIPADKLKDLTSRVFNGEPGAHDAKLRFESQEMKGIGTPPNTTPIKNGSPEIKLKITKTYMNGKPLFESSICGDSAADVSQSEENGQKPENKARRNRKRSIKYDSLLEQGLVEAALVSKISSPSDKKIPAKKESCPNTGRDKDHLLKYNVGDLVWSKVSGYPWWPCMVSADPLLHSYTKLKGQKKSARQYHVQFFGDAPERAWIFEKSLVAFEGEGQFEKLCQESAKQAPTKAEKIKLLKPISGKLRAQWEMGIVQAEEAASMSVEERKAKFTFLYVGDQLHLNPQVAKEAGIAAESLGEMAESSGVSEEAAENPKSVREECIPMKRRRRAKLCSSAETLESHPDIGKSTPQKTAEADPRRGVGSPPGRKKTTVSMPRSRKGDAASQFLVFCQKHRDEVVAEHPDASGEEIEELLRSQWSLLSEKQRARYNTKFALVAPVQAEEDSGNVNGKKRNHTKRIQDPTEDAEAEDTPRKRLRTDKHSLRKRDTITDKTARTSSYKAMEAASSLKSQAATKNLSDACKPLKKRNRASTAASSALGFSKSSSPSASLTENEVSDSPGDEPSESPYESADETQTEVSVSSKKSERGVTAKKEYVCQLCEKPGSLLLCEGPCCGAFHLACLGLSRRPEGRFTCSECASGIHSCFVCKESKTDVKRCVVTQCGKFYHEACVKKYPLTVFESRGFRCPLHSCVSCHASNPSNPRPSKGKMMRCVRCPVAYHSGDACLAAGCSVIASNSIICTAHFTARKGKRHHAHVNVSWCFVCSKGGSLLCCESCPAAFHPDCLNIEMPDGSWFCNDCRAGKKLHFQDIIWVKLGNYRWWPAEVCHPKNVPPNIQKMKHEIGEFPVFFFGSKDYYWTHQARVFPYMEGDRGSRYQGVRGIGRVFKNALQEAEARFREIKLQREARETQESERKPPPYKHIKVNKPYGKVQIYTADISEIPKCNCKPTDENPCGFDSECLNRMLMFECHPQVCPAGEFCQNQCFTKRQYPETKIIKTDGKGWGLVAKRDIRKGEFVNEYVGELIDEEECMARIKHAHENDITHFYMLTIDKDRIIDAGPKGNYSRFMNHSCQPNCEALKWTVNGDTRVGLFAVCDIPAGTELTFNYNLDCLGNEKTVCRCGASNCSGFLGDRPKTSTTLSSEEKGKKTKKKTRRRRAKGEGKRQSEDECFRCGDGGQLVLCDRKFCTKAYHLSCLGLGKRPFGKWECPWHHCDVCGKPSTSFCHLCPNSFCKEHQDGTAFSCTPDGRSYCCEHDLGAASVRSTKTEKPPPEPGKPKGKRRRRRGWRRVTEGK", "assay": "HotSpot [3H]SAM filter-binding methyltransferase assay", "type": "biochemical"}, "[1]": {"conditions": "nucleosomes, […] SAM, pH […] MgCl2, […] DTT, […] °C, single experiment"}}, "note": "pIC50: −log10 of the molar value. Where two headings read alike, the source gives them in different places."}
{"smiles": "CC1(C)CCC(CN2CCN(c3ccc(C(=O)NS(=O)(=O)c4ccc(NCC5CCOCC5)c([N+](=O)[O-])c4)c(Oc4cnc5[nH]ccc5c4)c3)CC2)=C(c2ccc(Cl)cc2)C1", "note": "[ABT-199]", "values": [{"measurement": "pIC50", "setting": "SET1b Complex", "result": 5.15}, {"measurement": "pIC50", "setting": "SET8", "result": 5.28}, {"measurement": "pIC50", "setting": "SETD2", "result": 5.48}, {"measurement": "pIC50", "setting": "EZH2 Complex", "result": 4.68}, {"measurement": "pIC50", "setting": "NSD2", "result": 5.64}]}
{"smiles": "O=C1C(Cl)=C(NCCN2CCOCC2)C(=O)c2ncccc21", "note": "[DA3003-1]", "values": [{"measurement": "pIC50", "setting": "SET8; read-out: DA3003-1 IC50, inhibitor", "result": 5.36}, {"measurement": "pIC50", "setting": "SETD2", "result": 6.68}, {"measurement": "pIC50", "setting": "EZH2 Complex", "result": 6.17}, {"measurement": "pIC50", "setting": "NSD2; [1]", "result": 6.77}]}
{"smiles": "COc1cccc(-n2nc(C(=O)O)cc2-c2ccc(C3CCCCC3)c(Cl)c2)c1", "note": "[TC LPA5 4]", "values": [{"measurement": "pIC50", "setting": "SET1b Complex; core histone, […] SAM, pH […] MgCl2, […] DTT, […] °C, single experiment", "result": 5.10}, {"measurement": "pIC50", "setting": "SET8", "result": 4.36}, {"measurement": "pIC50", "setting": "SETD2; [1]", "result": 4.89}, {"measurement": "pIC50", "setting": "EZH2 Complex; core histone, […] SAM, pH […] EDTA, […] DTT, […] °C, single experiment", "result": 4.51}, {"measurement": "pIC50", "setting": "NSD2; [1]", "result": 5.10}]}
